Structures are written as SMILES. Values joined by “and” are separate entries in the source; they are usually repeats but may differ in a detail not shown here. Equal entries are not always repeated.

This is an account of results in patent publication US20220017468A1, “ISOQUINOLINE COMPOUNDS AND THEIR USE IN TREATING AhR IMBALANCE” (Dermavant Sciences GmbH, priority 2020, published 2022).

A short description of data set [1]: blood-to-plasma ratio and blood cell association, rat. The class given is in vitro ADME.
Data set [2] can be described thus: blood-to-plasma ratio and blood cell association, minipig. The class given is in vitro ADME.
Data set [3] in a line: metabolic stability in hepatocytes, rabbit. The class given is in vitro ADME.
The nature of data set [4]: estimation of human plasma concentration following topical administration. To be noted: for Estimated AUC24 h / Estimated Css: 70 kg. The protocol:
The plasma clearance (CLhuman) was estimated from the in vitro and preclinical pharmacokinetic studies.
An estimated skin flux prediction was conducted, assuming a 2-hour lag time and receiving fluid levels obtained every two hours at the LLOQ level for 16 hours, leading to a calculated flux of 0.048 ng/cm^2/h.
Healthy skin is an effective protective barrier to most xenobiotics; therefore the relevance of a flux value derived from the ex vivo skin penetration assay, which uses healthy human skin from abdominoplasty surgeries, may not translate to what is observed following application onto unhealthy skin. […] Calculation of human systemic exposure with a 100-fold increase in flux has also been performed to account for the worst case estimation. A 10% body surface area (1800 cm^2) in human was used for this estimation. Therefore, for the purpose of safety margin estimation and considering the conditions explained herein, the estimated Css,human is 0.34 ng/mL with the corresponding AUCss, 24 h is 8.2 ng*h/mL. In clinical practice, topical treatment for atopical dermatitis can be up to 50% BSA (9000 cm2) and therefore corresponding estimated Css,human and AUCss, 24 h with 10-fold increase in flux is 0.17 ng/mL and 4.1 ng*h/mL.

The mark [5] stands for this setting: read-out: Blood-to-plasma Ratio Mean (% CV).
Where [6] appears, read: read-out: Blood-to-plasma Ratio Replicate.
Where [7] appears, read: flux 0.48 (10-fold increase), dose area 9000 cm^2, clearance 6 ml/min/kg.
Where [8] appears, read: flux 4.8 (100-fold increase), dose area 1800 cm^2, clearance 6 ml/min/kg.

Broadly, the half-life is the time in which the quantity being followed falls by half. Broadly, the CLint scaled is a measure of how fast metabolising enzymes remove a compound, apart from limits set by blood flow. For the compound `CC(C)c1c(O)cc(-c2cc3ccccc3cn2)cc1O`, the figures for the “% Blood Cell Association Mean (% CV)” value in data set [1] (1 μM) and in data set [2] (1 μM) were 60.2 (4.37) % and 55.6 (2.02) %, respectively. For the same compound, the “% Blood Cell Association Replicate” value in data set [1] (1 μM) is 58.9% and 58.3% and 63.1%; in data set [2] (1 μM), 55.3% and 56.8% and 54.5%. Also, the “Blood-to-plasma Ratio Replicate” value in data set [1] (1 μM) was 1.29 and 1.46; in data set [2] (1 μM), 1.25 and 1.19. For the same compound, the “Mean % Blood Stability” value is 104% in data set [1] (1 μM) and 105% in data set [2] (1 μM). Also, the blood plasma ratio at 1 μM in data set [1] (setting [5]) came out at 1.36; in data set [1] (setting [6]), 1.31; in data set [2] (setting [5]), 1.22; in data set [2] (setting [6]) it was 1.21. For the same compound, the half-life at 0.5 μM in data set [3] was found to be 21.3 min. In addition, in data set [3] (0.5 μM), the “CLint, hep” value is recorded as 7.80 mL/min/g liver. The intrinsic clearance (CLint scaled) at 0.5 μM in data set [3] (read-out: Scaled CLint, hep) was determined as 240 mL/min/kg. The “lowest predicted human clearance” value in data set [4] (allometric scaling with plasma protein binding correction) is given as 6 mL/min/kg. The “Topical Skin Flux (calculated)” value in data set [4] (assuming 2-hour lag time and receiving fluid levels at the LLOQ for 16 hours) is recorded as 0.048 ng/cm^2/h. In addition, the “Estimated AUC24 h” value was 4.1 ng·h/mL in data set [4] (setting [7]) and 8.2 ng·h/mL in data set [4] (setting [8]). The entries for the “Estimated Css” value in data set [4] (setting [7]) and in data set [4] (setting [8]) were 0.17 ng/mL and 0.34 ng/mL, respectively.
